Results reported in US9708255B2, “(bis)urea and (bis)thiourea compounds as epigenic modulators of lysine-specific demethylase 1 and methods of treating disorders” (priority 2009, dated 2017).

Experiments:
global H3K4me2 [1] = conditions: P19 cell line; cited from earlier work
recombinant human LSD1 = recombinant human LSD1 (Homo sapiens, UniProt O60341); assay: LSD1 demethylase assay, luminol-dependent chemiluminescence (H2O2 production); conditions: read-out: % LSD1 activity remaining, treatment with each analogue at 10 μM
Protocol: Percent of LSD1 activity remaining was determined following 24-hour treatment with 10 mM of each test compound as determined by the luminol-dependent chemiluminescence method.
The ability of the target (bis)ureas and (bis)thioureas to inhibit LSD1 was determined in an assay procedure utilizing the recombinant human enzyme. Expression and purification of LSD1 were conducted as previously reported. Enzymatic activity of LSD1 in the presence of target compounds was determined using luminol-dependent chemiluminescence to measure the production of H2O2, as previously described. […] Full-length human LSD1 cDNA was subcloned into the pET15b bacterial expression vector (Novagen, Madison, Wis.) in frame with an N-terminal 6×HIS-tag and transformed into the BL21(DE3) strain of Escherichia coli. Following selection, expression and purification of recombinant LSD1 protein were performed as previously described. Briefly, expression of LSD1-HIS protein was induced by 1 mM IPTG for 6 h at 25° C. The HIS-tagged protein was purified using Ni-NTA affinity purification resin and column as recommended by the manufacturer (Qiagen, Valencia, Calif.). Bound protein was eluted by imidazole and the eluate was dialyzed in PBS at 4° C. […] The integral values were calibrated against standards containing known concentrations of H2O2, and the activities expressed as pmols H2O2/mg protein/min. […]

global H3K4me2 [2] = assay: Global H3K4me2 in HCT116 human colon tumor cells; format: cell-based; conditions: HCT116 human colon tumor cells (data not shown)
SFRP2 mRNA = assay: Re-expression of SFRP2 mRNA by qPCR in Calu-6 cells; format: cell-based, human; conditions: Calu-6, 24 hours; for dose dependence of SFRP2 expression increase: 5 vs 10 μM
Description: (§1) The ability of compounds 25-27 to induce the re-expression of aberrantly silenced tumor suppressor genes in vitro was next measured using the Calu-6 human lung carcinoma cell line. The tumor suppressor genes SFRP2 and GATA4 were chosen because they are known to be under expressed in human lung cancer, and because they are thought to play a role in tumorigenesis when silenced. Thus, the genes coding for these proteins are well-documented LSD1 targets. […]. […]. The increase in GATA4 mRNA caused by […] 27 is reproducible, but is not statistically significant (P>0.05).
(§2) RNA was extracted using TRIzol reagents (Invitrogen, Carlsbad, Calif.). First-strand cDNA was synthesized using SuperScript III reverse transcriptase with an oligo(dT) primer (Invitrogen). qPCR was performed using the following primers: SFRP2 sense, 5′AAGCCTGCAAAAATAAAAATGATG; SFRP2 antisense, 5′TGTAAATGGTCTTGCTCTTGGTCT (annealing at 57.4° C.); GATA4 sense, 5′GGCCGCCCGACACCCCAATCT; GATA4 antisense, 5′ ATAGTGACCCGTCCCATCTCG (annealing at 64° C.). qPCR was performed in a MyiQ single color real-time PCR machine (Bio-Rad, Hercules, Calif.) with GAPDH as an internal control.

global H3K4me1 = assay: Global H3K4me1 level by quantitative Western blot in Calu-6 cells; format: cell-based, human; conditions: Calu-6, 10 μM
Protocol: (§3) FIG. 2. Effect of compounds 25-27 on the expression of global H3K4me1 and H3K4me2. […] Proliferating cell nuclear antigen (PCNA) was used as a loading control. Shown are Western blot images from a single representative experiment performed in triplicate. Relative protein expression levels were determined by quantitative Western analysis using the Odyssey infrared detection system shown as bar graphs. The results represent the mean of three treatments ±SD. The protein expression level for control samples was set to a value of 1.
(§4) The ability of the target (bis)ureas and (bis)thioureas to inhibit LSD1 was determined in an assay procedure utilizing the recombinant human enzyme. Expression and purification of LSD1 were conducted as previously reported. Enzymatic activity of LSD1 in the presence of target compounds was determined using luminol-dependent chemiluminescence to measure the production of H2O2, as previously described. The results of these experiments are summarized in Table 1, and graphically in FIG. 1. […] Subsequent experiments were conducted in the Calu-6 human anaplastic non-small cell lung carcinoma line because it has a highly reproducible response to epigenetic modulation, and because it is known that various tumor suppressor genes are silenced in this line. In order for synthetic analogues to be effective at the cellular level, any observed decreases in cellular LSD1 activity should be accompanied by an increase in global H3K4me1 and H3K4me2 content. […] The reduction in H3K4me2 and corresponding increase in H3K4me1 by 26 at both 24 and 48 hours cannot be readily explained, and is the subject of continuing investigation.
(§5) Cytoplasmic and nuclear fractions were prepared for Western blot analysis using the NE-PER™ Nuclear and Cytoplasmic Extraction Kit (Pierce, Rockford, Ill.). Primary antibodies against H3K4me2 were from Millipore. The pCNA monoclonal antibody was purchased from Oncogene Research Products (Cambridge, Mass.). Dye-conjugated secondary antibodies were used for quantification of Western blot results using the Odyssey Infrared Detection system and software (LI-COR Biosciences, Lincoln, Nebr.).

global H3K4me2 [3] = assay: Global H3K4me2 level by quantitative Western blot in Calu-6 cells; format: cell-based, human; conditions: Calu-6, 10 μM
Protocol: as §3, §4, §5

GATA4 mRNA = assay: Re-expression of GATA4 mRNA by qPCR in Calu-6 cells; format: cell-based, human; conditions: Calu-6, 24 hours; for effect on GATA4 levels: 5 and 10 μM
Description: as §1, §2

[4] = target: recombinant LSD1/CoRest complex (Homo sapiens, UniProt O60341); conditions: cited from earlier work

N[C@@H]1C[C@H]1c1ccccc1 (racemic) [tranylcypromine]
global levels of H3K4me2 (global H3K4me2 [1]): increase

S=C(NCCCNCCCNCCCNC(=S)NCCC(c1ccccc1)c1ccccc1)NCCC(c1ccccc1)c1ccccc1 [Compound 20, 1,11-bis-{3-[1-(3,3-diphenylpropyl)thioureado]}-4,8-diazaundecane]
remaining activity at 10 µM (recombinant human LSD1): 92.2%

S=C(NCCCNCCCCCCCNCCCNC(=S)NCC(c1ccccc1)c1ccccc1)NCC(c1ccccc1)c1ccccc1 [Compound 25, 1,15-bis-{3-[1-(2,2-diphenylethyl)thioureado]}-4,12-diazapentadecane]
increase in global H3K4me2 (global H3K4me2 [2]): 17.4 fold
dose dependence of SFRP2 expression increase (SFRP2 mRNA): dose dependent
global H3K4me1 level (global H3K4me1; 24 hours): significant increases
global H3K4me1 level (global H3K4me1; 48 hours): most dramatic increases
global H3K4me2 level (global H3K4me2 [3]; 24 hours): significant increases
global H3K4me2 level (global H3K4me2 [3]; 48 hours): most dramatic increases
effect on GATA4 levels (GATA4 mRNA): did not produce significant increases

S=C(NCCCNCCCCNCCCNC(=S)NCC(c1ccccc1)c1ccccc1)NCC(c1ccccc1)c1ccccc1 [Compound 26, 1,12-bis-{3-[1-(2,2-diphenylethyl)thioureado]}-4,9-diazadodecane]
dose dependence of SFRP2 expression increase (SFRP2 mRNA): same level
global H3K4me1 level (global H3K4me1; 24 hours): significant increase
global H3K4me1 level (global H3K4me1; 48 hours): increase
global H3K4me2 level (global H3K4me2 [3]; 24 hours): decreased
global H3K4me2 level (global H3K4me2 [3]; 48 hours): reduction
effect on GATA4 levels (GATA4 mRNA): did not produce significant increases

S=C(NCCCNCCCNCCCNC(=S)NCC(c1ccccc1)c1ccccc1)NCC(c1ccccc1)c1ccccc1 [Compound 27, 1,11-bis-{3-[1-(2,2-diphenylethyl)thioureado]}-4,8-diazaundecane]
increase in SFRP2 expression (SFRP2 mRNA; 10 mM (so in the source)): 4.8 fold
dose dependence of SFRP2 expression increase (SFRP2 mRNA): dose dependent
global H3K4me1 level (global H3K4me1; 24 hours): significant increases
global H3K4me2 level (global H3K4me2 [3]; 24 hours): significant increases
effect on GATA4 mRNA (GATA4 mRNA; 5 μM): no significant effect
increase in GATA4 mRNA (GATA4 mRNA; 10 μM (b97 prints 10 mM)): 1.3 fold

O=C(NCCCNCCCCNCCCNC(=O)NC(=O)N(c1ccccc1)c1ccccc1)NC(=O)N(c1ccccc1)c1ccccc1 [Compound 31, 1,12-bis-{5-[1-(N,N-diphenyl)carbamyl]ureado}-4,9-diazadodecane]
remaining activity at 10 µM (recombinant human LSD1): 26.1%

NNCCc1ccccc1 [phenelzine]
nucleosomal demethylation [4]: inactivate
global levels of H3K4me2 (global H3K4me2 [1]): increase
